Reference: patent US7709636B2, “Pyrazole sulfonylurea compound and herbicide” (Nissan Chemical Industries, Ltd., priority 2004, dated 2010)

Assays:
Type in all cases: in vivo
Scirpus juncoides [1] = experiment: Herbicidal effect test in submerged condition by treatment during weed-growth stage (1); conditions: 0.64 g/a, treated at 1st to 2nd leaf stage, 3 weeks after treatment
Procedure, shortened: (§1)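 Paddy-soil pots flooded to 4 cm water depth were sown and grown in a greenhouse at 25 to 30° C until weeds reached 1st to 2nd leaf stage. A wettable powder diluted in water to a predetermined formulation amount was applied to the water surface. Herbicidal effect was scored 3 weeks after treatment against set criteria.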

Echinochloa crus-galli [2] = experiment: as above; conditions: 0.64 g/a, treated at 1st to 2nd leaf stage, 3 weeks after treatment
Procedure, shortened: as §1

Monochoria vaginalis [3] = experiment: as above; conditions: 0.64 g/a, treated at 1st to 2nd leaf stage, 3 weeks after treatment
Procedure, shortened: as §1

Avena fatua [4] = experiment: Herbicidal effect test by foliage treatment; conditions: 1.6 g/a; foliage treatment after growth of 14 days; 3 weeks after treatment
Procedure, shortened: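 Seeds sown in sterilized diluvial soil, covered with about 1.5 cm soil and grown 14 days in a greenhouse at 25 to 30° C. Foliage then sprayed uniformly with water-diluted wettable powder at a predetermined formulation amount; herbicidal effect scored 3 weeks after treatment.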

corn (Zea mays) = experiment: Herbicidal effect test by soil treatment; conditions: 1.6 g/a, 3 weeks after treatment
Procedure, shortened: (§2)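 Seeds were sown in sterilized diluvial soil and covered with about 1.5 cm of soil. A wettable powder diluted in water to a predetermined formulation amount was sprayed uniformly on the soil surface. Herbicidal effect was scored visually 3 weeks after treatment.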

Amaranthus retroflexus = experiment: Herbicidal effect test by soil treatment; conditions: 1.6 g/a, 3 weeks after treatment
Procedure, shortened: as §2

Setaria viridis = experiment: Herbicidal effect test by soil treatment; conditions: 1.6 g/a, 3 weeks after treatment
Procedure, shortened: as §2

Black-grass = experiment: Herbicidal effect test by soil treatment; conditions: 1.6 g/a, 3 weeks after treatment
Procedure, shortened: as §2

[5] = tested on: Triticum aestivum (wheat); experiment: Herbicidal effect test by soil treatment; conditions: 1.6 g/a, 3 weeks after treatment
Procedure, shortened: as §2

Abutilon avicennae = experiment: Herbicidal effect test by soil treatment; conditions: 1.6 g/a, 3 weeks after treatment
Procedure, shortened: as §2

Chenopodium album = experiment: Herbicidal effect test by soil treatment; conditions: 1.6 g/a, 3 weeks after treatment
Procedure, shortened: as §2

Echinochloa crus-galli [6] = experiment: Herbicidal effect test by soil treatment; conditions: 1.6 g/a, 3 weeks after treatment
Procedure, shortened: as §2

Polygonum blumei = experiment: Herbicidal effect test by soil treatment; conditions: 1.6 g/a, 3 weeks after treatment
Procedure, shortened: as §2

Digitaria adscendes = experiment: Herbicidal effect test by soil treatment; conditions: 1.6 g/a, 3 weeks after treatment
Procedure, shortened: as §2

Ambrosia elatior = experiment: Herbicidal effect test by soil treatment; conditions: 1.6 g/a, 3 weeks after treatment
Procedure, shortened: as §2

soybean (Glycine max) = experiment: Herbicidal effect test by soil treatment; conditions: 1.6 g/a, 3 weeks after treatment
Procedure, shortened: as §2

Avena fatua [7] = experiment: Herbicidal effect test by soil treatment; conditions: 1.6 g/a, 3 weeks after treatment
Procedure, shortened: as §2

Stellaria media = experiment: Herbicidal effect test by soil treatment; conditions: 1.6 g/a, 3 weeks after treatment
Procedure, shortened: as §2

Beta vulgaris (beet) = experiment: Herbicidal effect test by soil treatment; conditions: 1.6 g/a, 3 weeks after treatment
Procedure, shortened: as §2

[8] = tested on: transplanted rice (Oryza sativa); experiment: Crop injury test on rice in water leakage condition; conditions: 0.15 g/a; water leakage 2 cm/day x 3 days; treated on third day after transplantation; 3 weeks after treatment
Method: Crop Injury Test on Rice in Water Leakage Condition A mixed soil of alluvial soil and diluvial soil was placed in a plastic pot perforated at the bottom of 1/10000 are, water was poured therein and mixed, and then rice seedlings at 2.5th leaf stage were transplanted. Water leakage treatment was carried out by placing the pot in a plastic vat, and controlling the amount of water in the vat kept at a condition of 2 cm/day×3 days. The pot was put in a green house at 25 to 30° C., on third day after transplantation, the wettable powder of the present invention prepared according to Formulation Example 1 was diluted with water so as to give a predetermined formulation amount, and the surface of the water was treated with the diluted wettable powder. The crop injury on rice was investigated 3 weeks after treatment with the herbicide according to the criteria indicated in Test Example 1.

Scirpus juncoides [9] = experiment: Herbicidal effect test in submerged condition by treatment before weed-generation (1); conditions: 0.64 g/a, water surface treated on day of sowing, 3 weeks after treatment
Procedure, shortened: (§3)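 Alluvial soil flooded to 4 cm depth; weeds sown and rice seedlings (2.5-leaf stage) transplanted, then wettable powder diluted in water applied to the water surface on sowing day. Greenhouse at 25 to 30° C; herbicidal effect scored 0–5 after 3 weeks (5 = ≥90% kill, 0 = ≤5%).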

Echinochloa crus-galli [10] = experiment: as above; conditions: 0.64 g/a, water surface treated on day of sowing, 3 weeks after treatment
Procedure, shortened: as §3

Monochoria vaginalis [11] = experiment: as above; conditions: 0.64 g/a, water surface treated on day of sowing, 3 weeks after treatment
Procedure, shortened: as §3

## COc1cc(OC)nc(NC(=O)NS(=O)(=O)c2c(C3=NOCC(C)O3)c(Cl)nn2C)n1 (centres unmarked) [Compound 1, N-((4,6-dimethoxypyrimidin-2-yl)aminocarbonyl)-3-chloro-1-methyl-4-(5-methyl-5H,6H-1,4,2-dioxadin-3-yl)pyrazole-5-sulfonamide]
Scirpus juncoides [1]
  herbicidal effect, B: Scirpus juncoides: 5 (Herbicidal rate 90% or more (almost complete death))
Echinochloa crus-galli [2]
  herbicidal effect, A: Echinochloa crus-galli: 5 (Herbicidal rate 90% or more (almost complete death))
Monochoria vaginalis [3]
  herbicidal effect, C: Monochoria vaginalis: 5 (Herbicidal rate 90% or more (almost complete death))
Avena fatua [4]
  herbicidal effect, F: Avena fatua: 1 (Herbicidal rate 5% or more and less than 20%)
Corn (Zea mays)
  herbicidal effect, b: corn (Zea mays): 5 (Herbicidal rate 90% or more (almost complete death))
Amaranthus retroflexus
  herbicidal effect, J: Amaranthus retroflexus: 5 (Herbicidal rate 90% or more (almost complete death))
Setaria viridis
  herbicidal effect, E: Setaria viridis: 1 (Herbicidal rate 5% or more and less than 20%)
Black-grass
  herbicidal effect, G: Black-grass: 4 (Herbicidal rate 70% or more and less than 90%)
[5]
  herbicidal effect, e: Triticum aestivum (wheat): 5 (Herbicidal rate 90% or more (almost complete death))
Abutilon avicennae
  herbicidal effect, H: Abutilon avicennae: 4 (Herbicidal rate 70% or more and less than 90%)
Chenopodium album
  herbicidal effect, K: Chenopodium album: 5 (Herbicidal rate 90% or more (almost complete death))
Echinochloa crus-galli [6]
  herbicidal effect, A: Echinochloa crus-galli: 2 (Herbicidal rate 20% or more and less than 40%)
Polygonum blumei
  herbicidal effect, L: Polygonum blumei: 5 (Herbicidal rate 90% or more (almost complete death))
Digitaria adscendes
  herbicidal effect, D: Digitaria adscendes: 4 (Herbicidal rate 70% or more and less than 90%)
Ambrosia elatior
  herbicidal effect, I: Ambrosia elatior: 5 (Herbicidal rate 90% or more (almost complete death))
Soybean (Glycine max)
  herbicidal effect, c: soybean (Glycine max): 5 (Herbicidal rate 90% or more (almost complete death))
Avena fatua [7]
  herbicidal effect, F: Avena fatua: 0 (Herbicidal rate 5% or less (little effect))
Stellaria media
  herbicidal effect, M: Stellaria media: 5 (Herbicidal rate 90% or more (almost complete death))
Beta vulgaris (beet)
  herbicidal effect, f: Beta vulgaris (beet): 5 (Herbicidal rate 90% or more (almost complete death))
[8]
  crop injury on rice, a: transplanted rice (Oryza sativa): 0 (Herbicidal rate 5% or less (little effect))
Scirpus juncoides [9]
  herbicidal effect, B: Scirpus juncoides: 5 (Herbicidal rate 90% or more (almost complete death))
Echinochloa crus-galli [10]
  herbicidal effect, A: Echinochloa crus-galli: 5 (Herbicidal rate 90% or more (almost complete death))
Monochoria vaginalis [11]
  herbicidal effect, C: Monochoria vaginalis: 5 (Herbicidal rate 90% or more (almost complete death))
